Assay results published in paper PMC7887804 (Chemical Research in Toxicology, 2020).
Like-named read-outs stand apart in the source and are kept apart here. Marks after values point to notes of the source that are not given here.

How the values were obtained:
[1] = cited from earlier work; for pKa: A, acid, ref Tsao [40]; for logP: octanol/water, ref PubChem
[2] = tested on: thyroid peroxidase (TPO); assay: QIVIVE oral equivalent dose related to TPO inhibition; design: species or system human; settings: humans; for oral equivalent dose related to TPO inhibition: Cmax equal to AC50 in NCCT_TPO_AUR_dn; for margin between human exposure and oral equivalent dose related to TPO inhibition: highest exposure estimates
[3] = cited from earlier work
[4] = In vitro metabolism study; type: in vitro ADME, human; settings: for conversion in incubations with and without the cofactor mix: RLS9 and HLS9, data not shown; for measured concentration at t = 0 lower than the added 1 μM: S9 incubation tubes, suggests binding to the plastic walls; for CLint,u: human (H), CLintapp corrected for the fraction unbound in the incubation; for CLintapp (apparent in vitro intrinsic clearance): human liver S9 (H), 1 μM substrate
[5] = In vitro metabolism study; type: in vitro ADME, rat; settings: for CLint,u: rat (R), CLintapp corrected for the fraction unbound in the incubation; for CLintapp (apparent in vitro intrinsic clearance): rat liver S9 (R), 1 μM substrate
[6] = positive hit calls, ToxCast summary data; cited from earlier work
[7] = tested on: human thyroid peroxidase (TPO); settings: ToxCast, cited from earlier work; for activity in the TPO assay: NCCT_TPO_AUR_dn
[8] = rats, 100 mg/kg bw [14C]-labelled, parent compound in plasma up to 24 h; cited from earlier work
[9] = tested on: thyroid peroxidase (TPO); assay: QIVIVE oral equivalent dose related to TPO inhibition; design: species or system rat; settings: rats, Cmax equal to AC50 in NCCT_TPO_AUR_dn
[10] = 90 day toxicity study, mainly effects on hematological parameters; cited from earlier work
[11] = cited from earlier work; remark: listed apart in the source
[12] = developmental toxicity study; cited from earlier work
[13] = rats ♂, 17.5 mg/kg bw, mean (min–max)
[14] = rats ♀ and ♂, 14 mg/kg bw, mean
[15] = rats ♀ and ♂, 135 mg/kg bw, mean
[16] = rats ♀, 14 mg/kg bw, mean (min–max)
[17] = rats ♀, 135 mg/kg bw, mean (min–max)
[18] = rats ♂, 14 mg/kg bw, mean (min–max)
[19] = rats ♂, 135 mg/kg bw, mean (min–max)
[20] = humans ♀ and ♂, 1.4 mg/kg bw, mean
[21] = humans ♀ and ♂, 14 mg/kg bw, mean
[22] = humans ♀, 1.4 mg/kg bw, mean (min–max)
[23] = humans ♀, 14 mg/kg bw, mean (min–max)
[24] = humans ♂, 1.4 mg/kg bw, mean (min–max)
[25] = humans ♂, 14 mg/kg bw, mean (min–max)

Compound: CCCCCCCCCCCCOC(=O)c1cc(O)c(O)c(O)c1 [dodecyl gallate]
- pKa [1]: 7.93 (A)
- logP [1]: 6.37
- oral equivalent dose related to TPO inhibition [2]: 69 mg/kg bw
- margin between human exposure and oral equivalent dose related to TPO inhibition [2]: ≥ 122 fold
- reported in vivo Cmax ([3]; rats, 10 mg/kg bw oral, blood collected only 10 min after dosing): no detectable plasma concentrations
- conversion in incubations with and without the cofactor mix [4]: to some extent
- measured concentration at t = 0 lower than the added 1 μM [4]: up to 2 fold
- CLint,u [4]: 8800 μL/min/mg of S9 protein
- CLintapp (apparent in vitro intrinsic clearance) [4]: 88 μL/min/mg of S9 protein
- CLint,u [5]: 11 600 μL/min/mg of S9 protein
- CLintapp (apparent in vitro intrinsic clearance) [5]: 232 μL/min/mg of S9 protein
- number of ToxCast assays in which the compound is active out of assays tested [6]: 210 out of 441
- activity in the TPO assay [7]: active

Compound: COC(=O)c1ccc(O)cc1 [methylparaben]
- conversion in incubations with and without the cofactor mix [4]: occurs both in the presence and absence of the cofactor mix
- CLint,u [4]: 121 μL/min/mg of S9 protein
- CLintapp (apparent in vitro intrinsic clearance) [4]: 102 μL/min/mg of S9 protein
- CLint,u [5]: 642 μL/min/mg of S9 protein
- CLintapp (apparent in vitro intrinsic clearance) [5]: 629 μL/min/mg of S9 protein
- faster conversion (CLint) by RLS9 compared with HLS9 ([5]; rat vs human liver S9): 6 fold
- number of ToxCast assays in which the compound is active out of assays tested [6]: 24 out of 886
- reported in vivo Cmax [8]: No parent compound was detected

Compound: CCCCCCCCOC(=O)c1cc(O)c(O)c(O)c1 [octyl gallate]
- pKa [1]: 7.94 (A)
- logP [1]: 4.33
- oral equivalent dose related to TPO inhibition [2]: 99 mg/kg bw
- margin between human exposure and oral equivalent dose related to TPO inhibition [2]: at least 106 fold
- reported in vivo Cmax ([3]; rats ♀, 17.5 mg/kg bw, mean): ♀ 20 (range NR)^a ng/mL
- reported in vivo AUC [3, 13]: ♂ 3.7 (1.4–7.8) n = 6 ng*hr/mL
- reported in vivo Cmax [3, 13]: ♂ 19 (9–41) n = 6 ng/mL
- conversion in incubations with and without the cofactor mix [4]: to some extent
- measured concentration at t = 0 lower than the added 1 μM [4]: up to 2 fold
- CLint,u [4]: 3999 μL/min/mg of S9 protein
- CLintapp (apparent in vitro intrinsic clearance) [4]: 3119 μL/min/mg of S9 protein
- CLint,u [5]: 4695 μL/min/mg of S9 protein
- CLintapp (apparent in vitro intrinsic clearance) [5]: 3662 μL/min/mg of S9 protein
- number of ToxCast assays in which the compound is active out of assays tested [6]: 355 out of 982
- activity in the TPO assay [7]: active

Compound: CCCOC(=O)c1cc(O)c(O)c(O)c1 [propyl gallate]
- oral equivalent dose related to TPO inhibition [9]: 7.9 mg/kg bw
- logP [1]: 1.87
- oral equivalent dose related to TPO inhibition [2]: 6.3 mg/kg bw
- NOAEL [10]: 150 mg/kg bw/day
- reported in vivo AUC [3, 14]: ♀ and ♂ 95 n = 12 ng*hr/mL
- reported in vivo Cmax [3, 14]: ♀ and ♂ 192 n = 12 ng/mL
- reported in vivo AUC [3, 15]: ♀ and ♂ 1624 n = 16 ng*hr/mL
- reported in vivo Cmax [3, 15]: ♀ and ♂ 4753 n = 16 ng/mL
- reported in vivo AUC [3, 16]: ♀ 66 (39–100) n = 6 ng*hr/mL
- reported in vivo Cmax [3, 16]: ♀ 238 (68–462) n = 6 ng/mL
- reported in vivo AUC [3, 17]: ♀ 1164 (321–3451) n = 8 ng*hr/mL
- reported in vivo Cmax [3, 17]: ♀ 4246 (884–12 825) n = 8 ng/mL
- reported in vivo AUC [3, 18]: ♂ 123 (62–217) n = 6 ng*hr/mL
- reported in vivo Cmax [3, 18]: ♂ 145 (67–334) n = 6 ng/mL
- reported in vivo AUC [3, 19]: ♂ 2085 (660–4119) n = 8 ng*hr/mL
- reported in vivo Cmax [3, 19]: ♂ 5260 (1635–11085) n = 8 ng/mL
- reported in vivo AUC [11, 20]: ♀ and ♂ 21 n = 11 ng*hr/mL
- reported in vivo Cmax [11, 20]: ♀ and ♂ 13 n = 11 ng/mL
- reported in vivo AUC [11, 21]: ♀ and ♂ 346 n = 10 ng*hr/mL
- reported in vivo Cmax [11, 21]: ♀ and ♂ 152 n = 10 ng/mL
- reported in vivo AUC [11, 22]: ♀ 19 (13-21) n = 4 ng*hr/mL
- reported in vivo Cmax [11, 22]: ♀ 12 (11–14) n = 4 ng/mL
- reported in vivo AUC [11, 23]: ♀ 290 (25–425) n = 5 ng*hr/mL
- reported in vivo Cmax [11, 23]: ♀ 150 (10–240) n = 5 ng/mL
- reported in vivo AUC [11, 24]: ♂ 21 (9.4–42) n = 7 ng*hr/mL
- reported in vivo Cmax [11, 24]: ♂ 14 (4–33) n = 7 ng/mL
- reported in vivo AUC [11, 25]: ♂ 402 (290–587) n = 5 ng*hr/mL
- reported in vivo Cmax [11, 25]: ♂ 155 (84–208) n = 5 ng/mL
- CLint,u [4]: 437 μL/min/mg of S9 protein
- CLintapp (apparent in vitro intrinsic clearance) [4]: 428 μL/min/mg of S9 protein
- CLint,u [5]: 835 μL/min/mg of S9 protein
- CLintapp (apparent in vitro intrinsic clearance) [5]: 818 μL/min/mg of S9 protein
- number of ToxCast assays in which the compound is active out of assays tested [6]: 131 out of 888
- NOAEL [12]: 300 mg/kg bw/day
- AC50 ([7]; read-out: AC50 in the NCCT_TPO_AUR_dn assay, TPO inhibition): 580 nM
